Structures are written as SMILES.

For the assay, the system named is endogenous SNAP23 S-acylation in HEK293T cells. The assay can be described thus: mPEG-click S-acylation of endogenous SNAP23 in HEK293T cells. As to conditions: 25 and 50 μM, 4 h pretreatment + 4 h labeling. Format: cell-based, human. The text has this:
Finally, we tested whether TTZ-1 and TTZ-2 were able to block the S-acylation of endogenous proteins in the absence of zDHHC enzyme overexpression. In order to detect the S-acylation of endogenous proteins, we used mPEG-click, a technique that we developed recently ([49]) that is better suited for the click chemistry–based analysis of S-acylation of endogenously expressed proteins. In this assay, cells are labeled with either palmitate (C16:0), or C16:0-azide, lysed, and then subjected to click chemistry with alkyne-mPEG 5K. The addition of mPEG 5K moieties to S-acylated proteins increases their apparent molecular weight, which can be detected directly by immunoblotting. HEK293T cells were pretreated for 4 h with either TTZ-1 or TTZ-2 at 25 and 50 μM and then labeled with fatty acids for another 4 h in the presence of the compounds. We first assessed the S-acylation of endogenous SNAP23 as it is a close relative of SNAP25 (SNAP25 is not expressed in the non-neuronal HEK293T cell line) ([50], [51]). […]
Figure 10 Activity of TTZ-1 and TTZ-2 against the S-acylation of endogenous proteins in mammalian cells. […] The data were quantified, and the graphs below each set of membranes show mean ± SEM of normalized S-acylation of either endogenous SNAP23 (A) or endogenous calnexin (B). […]

For `O=C(Nc1cccc2c1OC(c1nnn[nH]1)CN2)c1ccc(OCCCCc2ccccc2)cc1` (centres unmarked) [TTZ-2, N-(2-(1H-Tetrazol-5-yl)-3,4-dihydro-2H-benzo[b][1,4]oxazin-8-yl)-4-(4-phenylbutoxy)benzamide], the “S-acylation of endogenous SNAP23” value is on record as “significant reduction”.
Next, `CCCCCCCOc1ccc(C(=O)Nc2cccc3c2OC(c2nnn[nH]2)CN3)cc1` (centres unmarked) [TTZ-1, N-(2-(1H-Tetrazol-5-yl)-3,4-dihydro-2H-benzo[b][1,4]oxazin-8-yl)-4-(heptyloxy)benzamide]: “significant reduction”.

These data come from publication PMC9558053, “Development of a novel high-throughput screen for the identification of new inhibitors of protein S-acylation” (The Journal of Biological Chemistry, 2022).
